Tests used:
ORYSAT (Rice, Tebonnet) [1] = test: Postemergence herbicidal evaluation; assay type: in vivo, Oryza sativa, (L.) Tebonnet
Procedure, shortened: (§1)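 Seedlings grown about two weeks in flats, sprayed, then kept under standard greenhouse care. Rated visually 4–5 weeks after treatment on a 0–9 scale (stand, vigour, malformation, size, chlorosis, overall appearance) relative to untreated control; repeat tests averaged.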

[2] = test system: AMBEL (Ambrosia artemisifolia); test: Postemergence herbicidal evaluation; assay type: in vivo, L.
Procedure, shortened: as §1

[3] = test system: CASOB (Cassia obtusifolia); test: Postemergence herbicidal evaluation; assay type: in vivo, L.
Procedure, shortened: as §1

[4] = test system: CHEAL (Chenopodium album); test: Postemergence herbicidal evaluation; assay type: in vivo, L.
Procedure, shortened: as §1

[5] = test system: AMBEL (Ambrosia artemisifolia); test: Preemergence herbicidal evaluation; assay type: in vivo, L.; conditions: preemergence, rated 4-5 weeks after treatment
Procedure, shortened: (§2)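 Seeds planted in potting soil cups and sprayed preemergence with aqueous acetone compound solution. Greenhouse-grown; rated 4–5 weeks after treatment on a 0-9 visual scale (stand, vigor, malformation, size, chlorosis, appearance) versus control.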

[6] = test system: CASOB (Cassia obtusifolia); test: Preemergence herbicidal evaluation; assay type: in vivo, L.; conditions: preemergence, rated 4-5 weeks after treatment
Procedure, shortened: as §2

[7] = test system: CHEAL (Chenopodium album); test: Preemergence herbicidal evaluation; assay type: in vivo, L.; conditions: preemergence, rated 4-5 weeks after treatment
Procedure, shortened: as §2

[8] = test system: GLXMAW (Soybean, Williams); test: Postemergence herbicidal evaluation; assay type: in vivo, Glycine max, (L.) Merr. cv Williams
Procedure, shortened: as §1

[9] = test system: IPOHE (Ipomoea hederacea); test: Preemergence herbicidal evaluation; assay type: in vivo, (L.) Jacq.; conditions: preemergence, rated 4-5 weeks after treatment
ORYSAT (Rice, Tebonnet) [10] = test: Flooded paddy, post-transplant rice tolerance; assay type: in vivo, Oryza sativa, (L.) Tebonnet; conditions: flooded paddy, post-transplant rice; rate 0.0320 kg/ha; rated 3-4 weeks after treatment; 0-9 rating scale
Procedure, shortened: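 Two ten-day-old Tebonnet rice seedlings transplanted into silt loam, then flooded with water held at 1.5–3 cm above soil; herbicide applied post-transplant. Plants kept in greenhouse and rated visually 0–9 versus untreated control for stand, vigor, malformation, size and chlorosis.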

[11] = test system: SAGPY (Sagittaria pygmaea); test: Flooded paddy, preemergence weed control; assay type: in vivo, L.; conditions: rated 3-4 weeks after treatment, 0-9 rating scale
Procedure, shortened: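 Visual 0-9 rating versus control, scoring stand, vigor, malformation, size, chlorosis and overall appearance. Silt loam soil, propagules in top 0.5 cm; flood depth 1.5–3 cm held for the whole test; greenhouse.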

ORYSAT (Rice, Tebonnet) [12] = test: Preemergence herbicidal evaluation; assay type: in vivo, Oryza sativa, (L.) Tebonnet; conditions: preemergence, rated 4-5 weeks after treatment
[13] = test system: TRZAWR (Wheat, Winter, cv Riband); test: Preemergence herbicidal evaluation; assay type: in vivo, Triticum aestivum; conditions: preemergence, rated 4-5 weeks after treatment
Procedure, shortened: as §2

GALAP (Galium aparine) [14] = test: Preemergence herbicidal evaluation; assay type: in vivo; conditions: preemergence, rated 4-5 weeks after treatment
Procedure, shortened: as §2

GALAP (Galium aparine) [15] = test: Postemergence herbicidal evaluation; assay type: in vivo
Procedure, shortened: as §1

ZEAMX (Corn, Field) = test: Postemergence herbicidal evaluation; assay type: in vivo, Zea mays, L.
Procedure, shortened: as §1

[16] = test system: ABUTH (Abutilon theophrasti); test: Preemergence herbicidal evaluation; assay type: in vivo, Medic.; conditions: preemergence, rated 4-5 weeks after treatment
[17] = test system: ECHCG (Echinochloa crus-galli); test: Postemergence herbicidal evaluation; assay type: in vivo, (L.) Beau
Procedure, shortened: as §1

[18] = test system: ABUTH (Abutilon theophrasti); test: Postemergence herbicidal evaluation; assay type: in vivo, Medic.
Procedure, shortened: as §1

[19] = test system: CYPSE (Cyperus serotinus); test: Flooded paddy, preemergence weed control; assay type: in vivo, Rottb.; conditions: rated 3-4 weeks after treatment, 0-9 rating scale
Procedure, shortened: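 Seeds or propagules were planted 0.5 cm deep in silt loam and flooded to 1.5–3 cm. Compounds in 50/50 v/v aqueous/acetone were pipetted into the flood water at about 0.0080 to 0.1250 kg/ha. After 3–4 weeks in the greenhouse, effect was rated visually on a 0–9 scale versus untreated control.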

Cn1c(C(F)(F)F)cc(=O)n(-c2ccc3snc(C4SCCS4)c3c2)c1=O [Compound 24, 3-[3-(1,3-dithiolan-2-yl)-1,2-benzisothiazol-5-yl]-1-methyl-6-(trifluoromethyl)uracil]
Postemergence herbicidal rating, ORYSAT (ORYSAT (Rice, Tebonnet) [1]; rate 0.0320 kg/ha): 2.0 | Postemergence herbicidal rating, ORYSAT (ORYSAT (Rice, Tebonnet) [1]; rate 0.0620 kg/ha): 2.5 | Postemergence herbicidal rating, AMBEL ([2]; rate 0.0320 kg/ha): 9.0 | Postemergence herbicidal rating, AMBEL ([2]; rate 0.0620 kg/ha): 9.0 | Postemergence herbicidal rating, CASOB ([3]; rate 0.0320 kg/ha): 3.0 | Postemergence herbicidal rating, CASOB ([3]; rate 0.0620 kg/ha): 9.0 | Postemergence herbicidal rating, CHEAL ([4]; rate 0.0320 kg/ha): 9.0 | Postemergence herbicidal rating, CHEAL ([4]; rate 0.0620 kg/ha): 9.0 | AMBEL preemergence herbicidal rating ([5]; Rate 0.0620 kg/ha): 4.5 | AMBEL preemergence herbicidal rating ([5]; Rate 0.1250 kg/ha): 8.0 | AMBEL preemergence herbicidal rating ([5]; Rate 0.2500 kg/ha): 9.0 | CASOB preemergence herbicidal rating ([6]; Rate 0.0620 kg/ha): 0.0 | CASOB preemergence herbicidal rating ([6]; Rate 0.1250 kg/ha): 0.0 | CASOB preemergence herbicidal rating ([6]; Rate 0.2500 kg/ha): 3.0 | CHEAL preemergence herbicidal rating ([7]; Rate 0.0620 kg/ha): 7.5 | CHEAL preemergence herbicidal rating ([7]; Rate 0.1250 kg/ha): 9.0 | CHEAL preemergence herbicidal rating ([7]; Rate 0.2500 kg/ha): 9.0 | Postemergence herbicidal rating, GLXMAW ([8]; rate 0.0320 kg/ha): 8.0 | Postemergence herbicidal rating, GLXMAW ([8]; rate 0.0620 kg/ha): 8.5 | IPOHE preemergence herbicidal rating ([9]; Rate 0.0620 kg/ha): 2.0 | IPOHE preemergence herbicidal rating ([9]; Rate 0.1250 kg/ha): 6.5 | IPOHE preemergence herbicidal rating ([9]; Rate 0.2500 kg/ha): 7.0 | herbicidal rating, ORYSAT (rice tolerance) (ORYSAT (Rice, Tebonnet) [10]): 0.0 | herbicidal rating, SAGPY ([11]; rate 0.0320 kg/ha): 0.0 | herbicidal rating, SAGPY ([11]; rate 0.1250 kg/ha): 5.0 | ORYSAT preemergence herbicidal rating (ORYSAT (Rice, Tebonnet) [12]; Rate 0.0620 kg/ha): 0.0 | ORYSAT preemergence herbicidal rating (ORYSAT (Rice, Tebonnet) [12]; Rate 0.1250 kg/ha): 3.0 | ORYSAT preemergence herbicidal rating (ORYSAT (Rice, Tebonnet) [12]; Rate 0.2500 kg/ha): 6.0 | TRZAWR preemergence herbicidal rating ([13]; Rate 0.0620 kg/ha): 0.0 | TRZAWR preemergence herbicidal rating ([13]; Rate 0.1250 kg/ha): 2.0 | GALAP preemergence herbicidal rating (GALAP (Galium aparine) [14]; Rate 0.0620 kg/ha): 5.0 | GALAP preemergence herbicidal rating (GALAP (Galium aparine) [14]; Rate 0.1250 kg/ha): 5.0 | Postemergence herbicidal rating, GALAP (GALAP (Galium aparine) [15]; rate 0.0320 kg/ha): 3.0 | Postemergence herbicidal rating, GALAP (GALAP (Galium aparine) [15]; rate 0.0620 kg/ha): 4.0 | Postemergence herbicidal rating, ZEAMX (ZEAMX (Corn, Field); rate 0.0320 kg/ha): 5.5 | Postemergence herbicidal rating, ZEAMX (ZEAMX (Corn, Field); rate 0.0620 kg/ha): 6.0 | ABUTH preemergence herbicidal rating ([16]; Rate 0.0620 kg/ha): 3.5 | ABUTH preemergence herbicidal rating ([16]; Rate 0.1250 kg/ha): 7.0 | ABUTH preemergence herbicidal rating ([16]; Rate 0.2500 kg/ha): 9.0 | Postemergence herbicidal rating, ECHCG ([17]; rate 0.0320 kg/ha): 0.0 | Postemergence herbicidal rating, ECHCG ([17]; rate 0.0620 kg/ha): 2.0 | Postemergence herbicidal rating, ABUTH ([18]; rate 0.0320 kg/ha): 9.0 | Postemergence herbicidal rating, ABUTH ([18]; rate 0.0620 kg/ha): 9.0 | herbicidal rating, CYPSE ([19]; rate 0.0320 kg/ha): 0.0 | herbicidal rating, CYPSE ([19]; rate 0.1250 kg/ha): 2.0

From US6706663B2, “Herbicidal 3-heterocyclic substituted benzisothiazole and benzisoxazole compounds” (Wyeth, priority 2000, dated 2004)
